The source of these data is ChEMBL document CHEMBL3507680, “University of Dundee, Gates Library screen for HepG2 cell viability”.

A short description of this data set: Human HepG2 cell viability assay in 384 well format. As to conditions: HepG2 cells, read-out: Inhibition. Further details: dose 125 nL, time 70.5 hour; concentration not given beside the values. It is filed as toxicity, cell-based.
Regarding `Cc1c(-c2ccccc2)nc2c(c(C)c(C)n2CCN(C)C)c1N`, the cytotoxicity at 70.5 h was 13.6%.
Consider `COc1cccc(-c2nc(C)c(C(=O)N[C@H](CO)CC(C)C)s2)c1`, for which the cytotoxicity at 70.5 h was -22.7%.
Under `CC(C)Cc1nc(OCC(N)=O)c(C#N)c2c1CCCC2` stands -9.41%.
The figure for `COCCNC(=O)Cn1ccc2ccc(F)cc21` is -3.63%.
In the case of `CC[C@H](C)[C@H](NC(=O)Cn1ccc2ccc(F)cc21)C(=O)OC`, the cytotoxicity at 70.5 h is -1.27%.
Under `O=C1CCCC2=C1C(c1ccc(F)cc1F)Nc1nonc1N2` (stereo not given) stands 12.1%; under `CC(C)CNC(=O)c1nc(COc2ccc3c(c2)OCO3)no1`, -7.9%.
The figure for `CC[C@H](C)[C@H](NC(=O)c1cccc(-n2cnnn2)c1)C(=O)OC` is -11%; for `O=C(Cc1csc(-c2ccccc2F)n1)NCc1ccc(C(=O)O)cc1` it is -10.6%; for `CC(C)CC(NC(=O)c1ccco1)c1nnc2ccccn12` (stereo not given) it is -24.3%.
Under `O=C(NCCN1CCOCC1)c1nc2ccccc2c(=O)[nH]1` stands -23.1%; under `CNC(=O)c1nc(COc2ccc3c(c2)OCO3)no1`, -9.82%.
In the case of `CCC(C)[C@H](NC(=O)c1ccc(F)cc1-n1cnnn1)C(=O)OC` (stereo not given in full), the cytotoxicity at 70.5 h is -10.7%.
Turning to `CC(=O)Nc1ccc(OCc2noc(C(=O)N3CCCCC3)n2)cc1`, the cytotoxicity at 70.5 h is -18.1%.
With `CC(C)NC(=O)Cc1cnc(-n2cccc2)s1`, the cytotoxicity at 70.5 h was -24.2%.
As to `Cn1nnnc1SC1CCc2ccccc2NC1=O` (stereo not given), the cytotoxicity at 70.5 h is -24.7%.
The figure for `O=C(NC1CC1)c1nc(COc2ccc3c(c2)OCO3)no1` is -9.12%; for `COCCNC(=O)c1cc(-n2cccc2)ccc1Cl` it is -23.7%.
On to `CN1C(=O)C2(CC(=O)Nc3[nH]ncc32)c2cc(F)ccc21` (stereo not given), for which the cytotoxicity at 70.5 h was -19.4%.
The figure for `COc1ccc(N2Cc3nc(=O)n(Cc4cccc(F)c4)n3C2=O)cc1` is -13%; for `O=S1(=O)CCC(S(=O)(=O)c2cccc(S(=O)(=O)N3CCCCCC3)c2)C1` (stereo not given) it is -10.9%.
The figure for `CN1C(=O)C2(CC(=O)Nc3c2cnn3C(C)(C)C)c2c(Cl)cccc21` (stereo not given) is -19.1%; for `O=C(NCCc1c[nH]cn1)c1ccc2c(c1)C(=O)N(C1CCCC1)C2=O` it is -1.68%; for `N#Cc1nc(COc2ccc3c(c2)OCO3)oc1NC1CCCCC1` it is -28.5%.
As to `CC(C)CCN1C(=O)c2ccc(C(=O)NCCc3c[nH]cn3)cc2C1=O`, the cytotoxicity at 70.5 h is -4.63%.
Under `Cc1cccc2c1N(C)C(=O)C21CC(=O)Nc2c1cnn2C(C)(C)C` (stereo not given) stands -18.4%; under `CC(C)[C@H](NC(=O)NC1CCS(=O)(=O)C1)C(=O)NCc1ccc(Cl)cc1` (stereo not given in full), -18.2%.
As for `COCCNc1nc(N2CCCC2)nc2nccnc12`, the cytotoxicity at 70.5 h stood at 26.5%.
Under `Cc1cc(C)n(Cc2ccc(-c3noc(C(=O)NCCO)n3)cc2)n1` stands -18.6%.
Under `Cc1occc(=O)c1OCc1noc(C(=O)NC2CCCC2)n1` stands -16.2%; under `Cn1cnnc1SC1CCc2ccccc2NC1=O` (stereo not given), -20.5%; under `COCCCN1C(=O)c2ccc(C(=O)NCCc3c[nH]cn3)cc2C1=O`, 1.41%.
Under `COc1cc2c(cc1OC)C(=O)C(Sc1nncn1C)C2` (stereo not given) stands -4.34%.
Regarding `CNC(=O)c1nc(CC(=O)Nc2cccc(C(F)(F)F)c2)no1`, the cytotoxicity at 70.5 h turned out to be 22.3%.
Consider `CC[C@@H](C)[C@H](NC(=O)NC1CCS(=O)(=O)C1)C(=O)NCc1ccncc1` (stereo not given in full), for which the cytotoxicity at 70.5 h came out at 10.2%.
For `CC(C)[C@H](NC(=O)NC1CCS(=O)(=O)C1)C(=O)NCc1ccccc1` (stereo not given in full), the cytotoxicity at 70.5 h was -19%.
For `COC(=O)[C@@H](NC(=O)c1snnc1-c1ccc(OC)cc1)C(C)C`, the cytotoxicity at 70.5 h was 11.1%.
With `CCc1c(C)sc2nc3n(CCN(C)C)nc(SC)n3c(=O)c12`, the cytotoxicity at 70.5 h was 20.8%.
For `CCN(CC)C(=O)CSc1sc2c(O)cc(=O)[nH]c2c1C(N)=O`, the cytotoxicity at 70.5 h is -14.3%.
Under `CCOC(=O)c1nc(CC(=O)Nc2ccc3cc[nH]c3c2)no1` stands -9.72%.
`Cc1nc(NC(=O)c2c(-n3cnnn3)sc3c2CCCC3)sc1C`: the cytotoxicity at 70.5 h was -10.4%.
The figure for `CNC(=O)c1nc(CC(=O)Nc2ccc3cc[nH]c3c2)no1` is -13.1%; for `O=C(NCCc1c[nH]c2ccccc12)C1(n2cnnn2)CCCCC1` it is -28.6%.
Under `COc1cccc(NC(=O)Cn2c(=O)nc(N)c3cc(C)sc32)c1` stands -17.3%; under `CCc1c(C)sc2nc3n(CC(N)=O)nc(SC)n3c(=O)c12`, 5.38%.
Under `Cc1csc(NC(=O)c2ccc(NC(=O)N3CCOCC3)cc2)n1` stands 3.47%; under `CCc1c(C)sc2c1c(N)nc(=O)n2CCN1CCCCC1`, 5.23%; under `C=C(C)Cn1c(=O)nc(N)c2c(-c3ccc(OC)cc3)csc21`, -9.64%.
For `CCc1c(C)sc2nc3n(CCN4CCOCC4)nc(SC)n3c(=O)c12`, the cytotoxicity at 70.5 h worked out at 5.28%.
The figure for `Cc1cc2c(N)nc(=O)n(CC(=O)Nc3cccc(Cl)c3)c2s1` is -13.3%; for `Cc1cc2c(N)nc(=O)n(CC(=O)Nc3ccccc3)c2s1` it is 8.01%; for `Cc1occc(=O)c1OCC(=O)N1CCN(c2cccc(Cl)c2)CC1` it is 2.39%.
As for `CC(C)c1ccc(C2CC(=O)Nc3c2cnn3C)cc1` (stereo not given), the cytotoxicity at 70.5 h is -15.6%.
Regarding `Cn1ncc2c1NC(=O)CC2c1cccs1` (stereo not given), the cytotoxicity at 70.5 h was -4.29%.
Turning to `COCCNC(=O)CNC(=O)c1nc(Cc2c(Cl)cccc2Cl)no1`, the cytotoxicity at 70.5 h was -8.7%.
On to `Cc1cnc(NC(=O)c2csc(NC3CCCC3)n2)s1`, for which the cytotoxicity at 70.5 h came out at 43.8%.
The figure for `COc1cc(C2CC(=O)Nc3c2cnn3C)ccc1O` (stereo not given) is 46.1%; for `COCc1nnn2c1CN(C(=O)c1ccnnc1)CCC2` it is 8.76%; for `O=C1[C@@H]2CCN(Cc3ccc(F)cc3)C[C@@H]2OCCN1c1cccnc1` it is -3.72%.
`Cc1ccc(N2CCC3(CCN(C(=O)C4CCOC4)CC3)CC2)nn1` (stereo not given): the cytotoxicity at 70.5 h is -3.84%.
As to `O=C(NC[C@H]1OC[C@@H]2CCN(c3ncccn3)C[C@@H]21)c1ccnnc1`, the cytotoxicity at 70.5 h stood at 1.23%.
Turning to `O=C(NC1CC1)[C@H]1CN(Cc2ccc3c(c2)OCO3)C[C@H]2OCC[C@@H]12`, the cytotoxicity at 70.5 h is -1.23%.
The figure for `O=C1COC2(CCN(Cc3ccoc3)CC2)CN1CCn1cccn1` is -2.81%; for `Fc1cnc(N2CCc3nnc(COc4ccccn4)n3CC2)nc1` it is -3.38%.
`CC(C)c1nc(-c2cc(C(=O)NCCN(C)C)c3ccccn23)cs1`: the cytotoxicity at 70.5 h was -1.61%.
For the molecule `CN(C)Cc1nnc2n1CCN(c1cnccn1)CC2`, the cytotoxicity at 70.5 h turned out to be 0.405%.
On to `CCn1ncc2c1C(COCC1CC1)N(Cc1nccs1)CC2` (stereo not given), for which the cytotoxicity at 70.5 h was -0.956%.
Under `c1cncc(COCc2n[nH]c3c2CN(Cc2ccco2)C3)c1` stands -1.5%; under `CCn1ncc2c1C(COCC1CC1)N(Cc1cnn(C)c1)CC2` (stereo not given), -3.67%.
The figure for `Cc1cnc2n1CCN(C)C21CCN(CC2CC2)CC1` is -0.923%.
